Test results reported in US8138188B2, “Melanocortin type 4 receptor agonist piperidinoylpyrrolidines” (Pfizer Inc., priority 2006, dated 2012).

Columns and labels:
human MC3 receptor = target: T1, human MC3 receptor (Homo sapiens, UniProt P41968); assay: In vitro agonist potency (EC50) against melanocortin receptor type 3, cAMP in recombinant cell line; type: cell-based; settings: cell line stably transfected with human MC3, 1 hour at 37° C.
T1 construct: stably transfected with full length cDNA encoding human MC1 or MC3 receptors; expressed in transfected cells; host or cells: Chinese hamster ovary cell line (MC3; 'respectively')
T1 sequence (P41968 whole entry): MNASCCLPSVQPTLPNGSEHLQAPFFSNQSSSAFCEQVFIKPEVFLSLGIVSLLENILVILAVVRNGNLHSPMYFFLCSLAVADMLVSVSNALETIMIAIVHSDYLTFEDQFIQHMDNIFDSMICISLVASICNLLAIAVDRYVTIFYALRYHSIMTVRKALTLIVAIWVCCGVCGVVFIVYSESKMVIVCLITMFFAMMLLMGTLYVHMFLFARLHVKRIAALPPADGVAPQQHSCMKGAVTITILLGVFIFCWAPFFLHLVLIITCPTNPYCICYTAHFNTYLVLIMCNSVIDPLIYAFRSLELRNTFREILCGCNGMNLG
Method: Measurement of In Vitro Agonist Potency (EC50) of Compounds Against Melanocortin Receptors Type 1 and 3 (MC1 and MC3).
Activation of melanocortin (MC) receptors by agonists results in activation of intracellular adenylate cyclase enzymes that synthesise the second messenger signalling molecule, adenosine 3′,5′-cyclic monophosphate (cAMP). Changes in cAMP levels following treatment of recombinant MC1 and MC3 cell lines with test compound were measured and an MC1 and MC3 potency estimate (EC50) calculated as follows: […]
Human embryonic kidney (HEK) or Chinese hamster ovary cell lines stably transfected with full length cDNA encoding human MC1 or MC3 receptors, respectively, were established using standard molecular biology methods. Test compounds were dissolved in dimethyl sulfoxide (DMSO) at 4 mM. 11 point half log unit increment dilution series of test compound, typically starting at 50 uM were prepared in a buffer comprised of phosphate buffered saline (PBS), 2.5% DMSO and 0.05% pluronic F-127 surfactant. Freshly cultured cells at 80-90% confluence were harvested and re-suspended in Dulbecco's Modified Eagle's Medium (DMEM). Cells (10,000 for MC3, 20,000 for MC1) were added to the test compound dilution series in a 384 well assay plate and incubated for 1 hour at 37° C. The relative cAMP concentration in each well was then measured using a β-galactosidase enzyme fragment complementation method purchased in kit form as the Discoverx cAMP II kit from GE Healthcare/Amersham Biosciences UK. In the case of MC1,3-Isobutyl-1-methylxanthine (IBMX) at a concentration of 750 μM was included in DMEM as the cells were re-suspended for assay. […] Sigmoidal curves were fitted to plots of log10 inhibitor concentration vs percent effect using a custom made software application called SIGHTS and EC50 estimates determined by the software as the concentration of test compound giving an effect half way between the bottom and top assymptopes of the sigmoidal dose response curve. Each experiment included an EC50 determination for alpha melanocyte stimulating hormone, which was used as a standard to track assay consistency and allow fair comparison between EC50 estimates obtained in different experiments.

[1] = In vitro metabolism rate determination, human liver microsome (HLM) assay; type: in vitro ADME; settings: human liver microsomes, substrate 1 μM; read-out: HLM (intrinsic clearance)
Description: In vitro Metabolism Rate Determination (Human Liver Microsome (HLM); Rat Liver Microsome (RLM) Assay)
Many drugs are metabolised by the cytochrome P450 mono-oxygenase system. This enzyme is found in high concentrations in the liver and is bound to the endoplasmic reticulum of the hepatocyte. The enzyme system can be obtained in semi-purified state by the preparation of the hepatic microsomal fractions. Determining a compound's in vitro half-life in such a system provides a useful indicator of metabolic stability.
Methodology For In Vitro Rate Determination Using Hepatic & Supermix Microsomes
The method outlined below is for a total incubation volume of 1.5 ml.
1. The following mixture is prepared in a test tube:
2. Defrost microsomes at room temperature and add sufficient microsomes to give a final concentration of 0.5 nmol cytochrome P450/ml of incubation e.g. for a 1.5 ml incubation, the volume of microsomes to be added is:
[formula] 3. Add sufficient MilliQ water to give a total incubation volume of 1.425 ml. 4. Remove 237.5 μl of incubation mix and place in test tube for PNA positive control. Add 2.5 μl of PNA solution, whirlimix, and put tube into a rack in the thermostatically controlled shaking water bath 5. Remove 100 μl for no substrate control and dispense in test tube. Place test tube in a rack in the thermostatically controlled shaking water bath. 6. Add substrate to the incubation. The substrate should be at an initial concentration of 1 μM. The volume of substrate required in the remaining 1.162.5 ml incubation is calculated as follows:
[formula] • N.B. The volume of organic solvent added should not exceed 0.1% of the total incubation volume. 7. Remove 100 μl of incubation mix into test tube for no cofactor control. Whirlimix and put into a rack in the thermostatically controlled shaking water bath. 8. Pre-incubate the tube containing the incubation mix, also positive control and no cofactor tubes in the thermostatically controlled shaking water bath set at 37° C. for approx 5 min. 9. Add NADP to initiate reaction (75 μl to each 1.162.5 ml incubation mix, 12.5 μl to positive control tube and 5 μl to no substrate tube) and take first time point immediately. The PNA positive control, no cofactor control and no substrate tubes are incubated for the total incubation time. 10. Remove 100 μl aliquots up to 9 different sampling points from 0 to 60 min (usually 0, 3, 5, 10, 15, 20, 30, 45 & 60 min) and terminate reaction. Longer incubation times can be used, but, after 120 min the microsomes deteriorate. The reaction may be terminated by addition of organic solvent, acid or base. At the end of the incubation process the no cofactor and no substrate controls in a similar manner i.e. terminate with the same reagent. 11. PNA Positive Control Procedure: • After the final sample has been taken, remove the positive control and add 1 ml 20% TCA to this tube. Also prepare a tube containing 250 μl of a PNP standard at 50 μM, and add 1 ml 20% TCA. Whirlimix both tubes and leave for approx 5 min to allow the protein to precipitate. • Centrifuge both tubes for approx 5 min in an instrument set at 3500 rpm. Remove 1 ml of supernatant and place into clean test tubes, discard the remainder. • Add 1 ml 10M NaOH to the supernatant, whirlimix, and leave to stand for approx min. Blank spectrophotometer with distilled water at 400 nm then measure absorbance of the PNP standard against distilled water. The microsomal 4-nitroanisole O-demethylase activity is calculated as follows: Calculation of Results
[formula] • The activity value from the incubation MUST be equal to or greater than 85% of the mean value of the batch used for the incubation to be valid. If this criteria is not met, then the incubation must be repeated. 11. Analyse samples (including no cofactor and no substrate control) by a specific assay for the substrate to determine the disappearance kinetics. Analysis Of Data […]

MC4 receptor = MC4 receptor (Homo sapiens, UniProt P32245); assay: MC4 functional agonist potency (EC50), assay protocol E of US2005/0176772 / WO 2005/077935; type: cell-based; settings: functional potency at the MC4 receptor
MC4 receptor, sequence (P32245 whole entry): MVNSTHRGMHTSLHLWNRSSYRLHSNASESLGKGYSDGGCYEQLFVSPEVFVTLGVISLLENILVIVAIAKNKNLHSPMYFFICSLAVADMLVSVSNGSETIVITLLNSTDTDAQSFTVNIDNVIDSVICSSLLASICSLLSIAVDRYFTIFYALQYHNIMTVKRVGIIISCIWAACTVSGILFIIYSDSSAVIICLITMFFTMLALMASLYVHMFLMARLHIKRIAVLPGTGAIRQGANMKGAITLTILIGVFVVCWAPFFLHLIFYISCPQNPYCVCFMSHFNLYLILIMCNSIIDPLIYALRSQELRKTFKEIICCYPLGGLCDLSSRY
Method: The compounds of formula (I) of the present invention have utility as MCR4 agonists in the treatment of various disease states.
MC5 and MC4 EC50 activity was determined as described by assay protocols D and E, respectively, in US2005/0176772 (pages 28-30).

EC50 (human MC3 receptor)	microsomal CLint at 1 μM [1]	EC50 (MC4 receptor)	Structure (SMILES)
43.9 nM	< 7 µL/min/mg	< 0.52 nM	C[C@@H]1CN(C(=O)[C@@H]2CN(c3ccc(C#N)cn3)C[C@H]2c2ccc(Cl)cn2)C[C@H](C)[C@@]1(O)c1ccc(F)cc1 [Example 1, 6-[(3S,4S)-3-(5-Chloropyridin-2-yl)-4-{[(3R,4R,5S)-4-(4-fluorophenyl)-4-hydroxy-3,5-dimethylpiperidin-1-yl]carbonyl}pyrrolidin-1-yl]nicotinonitrile]
4.26 nM	< 12 µL/min/mg	4.53 nM	C[C@@H]1CN(C(=O)[C@@H]2CN(c3ccc(C#N)nn3)C[C@H]2c2ccc(Cl)cn2)C[C@H](C)[C@@]1(O)c1ccc(F)cc1 [Example 2, 6-[(3S,4S)-3-(5-Chloropyridin-2-yl)-4-{[(3R,4R,5S)-4-(4-fluorophenyl)-4-hydroxy-3,5-dimethylpiperidin-1-yl]carbonyl}pyrrolidin-1-yl]pyridazine-3-carbonitrile]
55.9 nM	60 µL/min/mg	–	COc1ccc(N2C[C@@H](C(=O)N3C[C@@H](C)[C@](O)(c4ccc(F)cc4)[C@@H](C)C3)[C@H](c3ccc(Cl)cn3)C2)nn1 [Example 4, (3R,4R,5S)-1-{[(3S,4S)-4-(5-chloropyridin-2-yl)-1-(6-methoxypyridazin-3-yl)pyrrolidin-3-yl]carbonyl}-4-(4-fluorophenyl)-3,5-dimethylpiperidin-4-ol]
203 nM	< 7 µL/min/mg	137 nM	C[C@@H]1CN(C(=O)[C@@H]2CN(c3ccc(Cl)nn3)C[C@H]2c2ccc(F)cn2)C[C@H](C)[C@@]1(O)c1ccc(Cl)cc1 [Example 5, (3R,4R,5S)-4-(4-chlorophenyl)-1-{[(3S,4S)-1-(6-chloropyridazin-3-yl)-4-(5-fluoropyridin-2-yl)pyrrolidin-3-yl]carbonyl}-3,5-dimethylpiperidin-4-ol]
1460 nM	–	18.9 nM	C[C@@H]1CN(C(=O)[C@@H]2CN(c3ccc(=O)[nH]n3)C[C@H]2c2ccc(F)cn2)C[C@H](C)[C@@]1(O)c1ccc(Cl)cc1 [Example 6, 6-[(3S,4S)-3-{[(3R,4R,5S)-4-(4-chlorophenyl)-4-hydroxy-3,5-dimethylpiperidin-1-yl]carbonyl}-4-(5-fluoropyridin-2-yl)pyrrolidin-1-yl]pyridazin-3(2H)-one]
1600 nM	21 µL/min/mg	40 nM	C[C@@H]1CN(C(=O)[C@@H]2CN(c3ccc(=O)n(C)n3)C[C@H]2c2ccc(F)cn2)C[C@H](C)[C@@]1(O)c1ccc(Cl)cc1 [Example 7, 6-[(3S,4S)-3-{[(3R,4R,5S)-4-(4-chlorophenyl)-4-hydroxy-3,5-dimethylpiperidin-1-yl]carbonyl}-4-(5-fluoropyridin-2-yl)pyrrolidin-1-yl]-2-methylpyridazin-3(2H)-one]
1090 nM	> 440 µL/min/mg	27.5 nM	C[C@@H]1CN(C(=O)[C@@H]2CN(c3cncc(F)c3)C[C@H]2c2ccc(Cl)cn2)C[C@H](C)[C@@]1(O)c1ccccn1 [Example 8, (3R,4R,5S)-1-{[(3S,4S)-4-(5-chloropyridin-2-yl)-1-(5-fluoropyridin-3-yl)pyrrolidin-3-yl]carbonyl}-3,5-dimethyl-4-pyridin-2-ylpiperidin-4-ol]
520 nM	240 µL/min/mg	39.3 nM	C[C@@H]1CN(C(=O)[C@@H]2CN(c3cccnn3)C[C@H]2c2ccc(Cl)cn2)C[C@H](C)[C@@]1(O)c1ccccn1 [Example 9, (3R,4R,5S)-1-{[(3S,4S)-4-(5-chloropyridin-2-yl)-1-pyridazin-3-ylpyrrolidin-3-yl]carbonyl}-3,5-dimethyl-4-pyridin-2-ylpiperidin-4-ol]
493 nM	20.5 µL/min/mg	11.9 nM	C[C@@H]1CN(C(=O)[C@@H]2CN(c3ccc(=O)n(C)n3)C[C@H]2c2ccc(Cl)cn2)C[C@H](C)[C@@]1(O)c1ccc(Cl)cn1 [Example 10]
323 nM	< 45.5 µL/min/mg	34.3 nM	COc1ccc(C2CN(c3ccc(C#N)nn3)CC2C(=O)N2CC(C)C(O)(c3ccc(F)cc3)C(C)C2)cn1 (stereo not shown) [Example 16]
54.9 nM	> 440 µL/min/mg	1.59 nM	C[C@@H]1CN(C(=O)[C@@H]2CN(c3ccc(=O)n(C)n3)C[C@H]2c2ccc(Cl)cn2)C[C@H](C)[C@@]1(O)C1CCCCC1 [Example 17]
> 8520 nM	67 µL/min/mg	55.5 nM	C[C@@H]1CN(C(=O)[C@@H]2CN(c3ccc(=O)n(C)n3)C[C@H]2c2ccc(Cl)cn2)C[C@H](C)[C@@]1(O)C1CC1 [Example 18]
425 nM	21 µL/min/mg	6.5 nM	CC1CN(C(=O)C2CN(c3ccc(=O)n(C)n3)CC2c2ccc(Cl)cn2)CC(C)C1(O)c1ccc(F)c(F)c1 (stereo not shown) [Example 19]
1120 nM	31 µL/min/mg	16.4 nM	COc1ccc(C2(O)C(C)CN(C(=O)C3CN(c4ccc(=O)n(C)n4)CC3c3ccc(Cl)cn3)CC2C)cc1 (stereo not shown) [Example 20]
283 nM	144 µL/min/mg	2.81 nM	CC1CN(C(=O)C2CN(c3ccc(=O)n(C)n3)CC2c2ccc(Cl)cn2)CC(C)C1(O)c1ccccc1 (stereo not shown) [Example 21]
1050 nM	179 µL/min/mg	19.8 nM	C[C@@H]1CN(C(=O)[C@@H]2CN(c3ccc(=O)n(C)n3)C[C@H]2c2ccc(Cl)cn2)C[C@H](C)[C@@]1(O)c1ccccn1 [Example 22]
325 nM	19.5 µL/min/mg	–	CC1CN(C(=O)C2CN(c3ccc(=O)[nH]n3)CC2c2ccc(F)cn2)CC(C)C1(O)c1ccccc1 (stereo not shown) [Example 37]
2100 nM	95 µL/min/mg	–	CC1CN(C(=O)C2CN(c3ccc(=O)n(C)n3)CC2c2ccc(F)cn2)CC(C)C1(O)c1ccccc1 (stereo not shown) [Example 39]
> 20300 nM	25 µL/min/mg	–	COc1ccc(C2CN(c3ccc(=O)[nH]n3)CC2C(=O)N2CC(C)C(O)(c3ccc(F)cc3)C(C)C2)nc1 (stereo not shown) [Example 42]
